According to the NIST ThermoML archive (doi:10.1016/j.fluid.2019.112263):
Numbers after ± are expanded uncertainties.

Tests used:
[1] = wn = mass fraction of the nth substance listed; details: 100 kPa, Liquid, transient hot wire
[2] = 101.33 kPa, Liquid, transient hot wire

CCCCCCCCCC(=O)OC [methyl decanoate] + CCCO
[1]
Details	thermal conductivity [W/m/K]
287.88 K, w1 = 0.2022	0.1527 ± 0.0061
287.9 K, w1 = 0.4008	0.1495 ± 0.006
287.9 K, w1 = 0.5998	0.1481 ± 0.006
287.98 K, w1 = 0.7993	0.1462 ± 0.0059
297.73 K, w1 = 0.2022	0.1501 ± 0.006
297.73 K, w1 = 0.7993	0.1442 ± 0.0058
297.77 K, w1 = 0.4008	0.1473 ± 0.0059
297.95 K, w1 = 0.5998	0.1454 ± 0.0058
307.71 K, w1 = 0.2022	0.1479 ± 0.0059
307.75 K, w1 = 0.4008	0.1453 ± 0.0058
307.77 K, w1 = 0.7993	0.142 ± 0.0057
307.81 K, w1 = 0.5998	0.1435 ± 0.0058
317.64 K, w1 = 0.2022	0.1459 ± 0.0059
317.69 K, w1 = 0.4008	0.1426 ± 0.0057
317.74 K, w1 = 0.7993	0.1397 ± 0.0056
317.81 K, w1 = 0.5998	0.1414 ± 0.0057
327.55 K, w1 = 0.2022	0.1433 ± 0.0058
327.56 K, w1 = 0.5998	0.1394 ± 0.0056
327.59 K, w1 = 0.4008	0.1408 ± 0.0057
327.67 K, w1 = 0.7993	0.1374 ± 0.0055
337.58 K, w1 = 0.2022	0.1412 ± 0.0057
337.62 K, w1 = 0.5998	0.1371 ± 0.0055
337.68 K, w1 = 0.7993	0.1351 ± 0.0054
337.72 K, w1 = 0.4008	0.138 ± 0.006
347.56 K, w1 = 0.2022	0.1382 ± 0.0056
347.64 K, w1 = 0.4008	0.136 ± 0.005
347.65 K, w1 = 0.5998	0.1348 ± 0.0054
347.65 K, w1 = 0.7993	0.1328 ± 0.0053
357.48 K, w1 = 0.2022	0.1362 ± 0.0055
357.48 K, w1 = 0.7993	0.1299 ± 0.0052
357.51 K, w1 = 0.5998	0.1328 ± 0.0053
357.57 K, w1 = 0.4008	0.1341 ± 0.0054

CCO [ethanol]
[2]
Details	thermal conductivity [W/m/K]
276.51 K	0.1719 ± 0.0069
287.55 K	0.1677 ± 0.0067
297.25 K	0.1645 ± 0.0066
307.16 K	0.1617 ± 0.0065

CCCCCCCCCC(=O)OC [methyl decanoate] + CCCCCO
[1]
Details	thermal conductivity [W/m/K]
287.96 K, w1 = 0.1941	0.1495 ± 0.006
287.96 K, w1 = 0.4008	0.1482 ± 0.006
287.97 K, w1 = 0.6035	0.1467 ± 0.0059
288 K, w1 = 0.8002	0.1456 ± 0.0059
297.72 K, w1 = 0.1941	0.1477 ± 0.0059
297.73 K, w1 = 0.4008	0.1463 ± 0.0059
297.76 K, w1 = 0.6035	0.1453 ± 0.0058
297.85 K, w1 = 0.8002	0.1433 ± 0.0058
307.69 K, w1 = 0.8002	0.1414 ± 0.0057
307.72 K, w1 = 0.6035	0.1432 ± 0.0058
307.74 K, w1 = 0.4008	0.144 ± 0.0058
307.77 K, w1 = 0.1941	0.1451 ± 0.0058
317.73 K, w1 = 0.4008	0.142 ± 0.0057
317.74 K, w1 = 0.8002	0.1396 ± 0.0056
317.81 K, w1 = 0.6035	0.1406 ± 0.0057
317.86 K, w1 = 0.1941	0.1433 ± 0.0058
327.58 K, w1 = 0.4008	0.1405 ± 0.0057
327.66 K, w1 = 0.6035	0.1386 ± 0.0056
327.75 K, w1 = 0.8002	0.1366 ± 0.0055
327.82 K, w1 = 0.1941	0.1408 ± 0.0057
337.54 K, w1 = 0.8002	0.1347 ± 0.0054
337.6 K, w1 = 0.1941	0.1391 ± 0.0056
337.61 K, w1 = 0.6035	0.1361 ± 0.0055
337.76 K, w1 = 0.4008	0.1373 ± 0.0055
347.58 K, w1 = 0.4008	0.1356 ± 0.0055
347.61 K, w1 = 0.8002	0.1315 ± 0.0053
347.79 K, w1 = 0.1941	0.1367 ± 0.0055
347.85 K, w1 = 0.6035	0.1336 ± 0.0054
357.66 K, w1 = 0.4008	0.1333 ± 0.0054
357.7 K, w1 = 0.6035	0.132 ± 0.0053
357.75 K, w1 = 0.8002	0.1299 ± 0.0052
357.76 K, w1 = 0.1941	0.1345 ± 0.0054

O [water]
[2]
Details	thermal conductivity [W/m/K]
299.55 K	0.613 ± 0.025
309.44 K	0.6207 ± 0.025
319.56 K	0.6399 ± 0.026
339.38 K	0.653 ± 0.026
349.82 K	0.6704 ± 0.027

CCCCCCCCCC(=O)OC [methyl decanoate] + CCCCO
[1]
Details	thermal conductivity [W/m/K]
287.9 K, w1 = 0.2001	0.1497 ± 0.006
287.95 K, w1 = 0.8003	0.146 ± 0.0059
287.98 K, w1 = 0.599	0.1468 ± 0.0059
288.35 K, w1 = 0.4002	0.1476 ± 0.0059
297.66 K, w1 = 0.4002	0.1458 ± 0.0059
297.69 K, w1 = 0.2001	0.1473 ± 0.0059
297.81 K, w1 = 0.8003	0.1436 ± 0.0058
298 K, w1 = 0.599	0.1441 ± 0.0058
307.7 K, w1 = 0.2001	0.145 ± 0.0058
307.74 K, w1 = 0.4002	0.1436 ± 0.0058
307.81 K, w1 = 0.599	0.1427 ± 0.0057
307.86 K, w1 = 0.8003	0.1412 ± 0.0057
317.55 K, w1 = 0.2001	0.1431 ± 0.0058
317.7 K, w1 = 0.8003	0.1395 ± 0.0056
317.74 K, w1 = 0.4002	0.1418 ± 0.0057
317.81 K, w1 = 0.599	0.1403 ± 0.0056
327.62 K, w1 = 0.2001	0.1398 ± 0.0056
327.73 K, w1 = 0.4002	0.1388 ± 0.0056
327.78 K, w1 = 0.599	0.1382 ± 0.0056
327.78 K, w1 = 0.8003	0.137 ± 0.0055
337.59 K, w1 = 0.2001	0.1379 ± 0.0055
337.59 K, w1 = 0.4002	0.1372 ± 0.0055
337.66 K, w1 = 0.599	0.136 ± 0.0055
337.78 K, w1 = 0.8003	0.1346 ± 0.0054
347.49 K, w1 = 0.2001	0.1363 ± 0.0055
347.58 K, w1 = 0.599	0.1339 ± 0.0054
347.73 K, w1 = 0.4002	0.135 ± 0.0054
347.8 K, w1 = 0.8003	0.1318 ± 0.0053
357.56 K, w1 = 0.2001	0.1337 ± 0.0054
357.68 K, w1 = 0.4002	0.1325 ± 0.0053
357.71 K, w1 = 0.599	0.1317 ± 0.0053
357.76 K, w1 = 0.8003	0.13 ± 0.0052
